# Measurements published in patent US6902913B2, “Recombinant narbonolide polyketide synthase” (priority 1997, dated 2005).
# Experiments:
# picK protein = molecular target: T1, picK protein (Streptomyces venezuelae, UniProt O87605, G416S); test: hydroxylase activity of the picK protein (conversion of narbomycin to picromycin); format: biochemical; conditions: crude supernatant of E. coli BL21-DE3/pKOS023-61, 20 nmol narbomycin, 105 minutes at 30° C., by ELSD peak area
# T1 construct: made in house; host or cells: E. coli BL21-DE3
# Protocol: Plasmid pKOS023-61 was transformed into E. coli BL21-DE3. Successful transformants were grown in LB-containing carbenicillin (100 μg/ml) at 37° C. to an OD600 of 0.6. Isopropyl-beta-D-thiogalactopyranoside (IPTG) was added to a final concentration of 1 mM, and the cells were grown for an additional 3 hours before harvesting. The cells were collected by centrifugation and frozen at −80° C. A control culture of BL21-DE3 containing the vector plasmid pET21c (Invitrogen) was prepared in parallel.
# The frozen BL21-DE3/pKOS023-61 cells were thawed, suspended in […] of cold cell disruption buffer (5 mM imidazole, 500 mM NaCl, 20 mM Tris/HCl, pH 8.0) and sonicated to facilitate lysis. Cellular debris and supernatant were separated by centrifugation and subjected to SDS-PAGE on 10-15% gradient gels, with Coomassie Blue staining, using a Pharmacia Phast Gel Electrophoresis system. The soluble crude extract from BL21-DE3/pKOS023-61 contained a Coomassie stained band of Mr˜46 kDa, which was absent in the control strain BL21-DE3/pET21c.
# The hydroxylase activity of the picK protein was assayed as follows. […] Half of the reaction mixture was loaded onto an HPLC, and the effluent was analyzed by evaporative light scattering (ELSD) and mass spectrometry. […]
# [1] = molecular target: T2, 6-hydroxylase encoded by eryF (Saccharopolyspora erythraea, UniProt Q00441); test: in vitro 6-hydroxylation by the 6-hydroxylase encoded by eryF; format: biochemical; conditions: 100 pmol hydroxylase, 10 nmol substrate, 90 minutes at 30° C., based on relative total ion counts
# T2 construct: made in house; host or cells: E. coli
# T2 sequence (Q00441 1-404): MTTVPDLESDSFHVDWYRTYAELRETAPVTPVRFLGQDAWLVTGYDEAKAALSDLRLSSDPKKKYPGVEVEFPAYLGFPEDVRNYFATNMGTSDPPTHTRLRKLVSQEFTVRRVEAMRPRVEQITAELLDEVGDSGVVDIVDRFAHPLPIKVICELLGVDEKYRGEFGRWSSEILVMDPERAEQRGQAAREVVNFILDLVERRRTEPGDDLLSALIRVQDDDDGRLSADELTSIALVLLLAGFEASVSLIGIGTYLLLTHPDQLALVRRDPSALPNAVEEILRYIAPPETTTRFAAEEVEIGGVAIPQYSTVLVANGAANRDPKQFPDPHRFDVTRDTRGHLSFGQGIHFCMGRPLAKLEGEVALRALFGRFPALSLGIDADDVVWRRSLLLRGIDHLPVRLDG
# Protocol: The 6-hydroxylase encoded by eryF was expressed in E. coli, and partially purified. The hydroxylase (100 pmol in 10 μL) was added to a reaction mixture (100 μl total volume) containing 50 mM Tris/HCl (pH 7.5), 20 μM spinach ferredoxin, 0.025 Unit of spinach ferredoxin:NADP^+ oxidoreductase, 0.8 Unit of glucose-6-phosphate dehydrogenase, 1.4 mM NADP^+, 7.6 mM glucose-6-phosphate, and 10 nmol 6-deoxyerythronolide B. The reaction was allowed to proceed for 90 minutes at 30° C. Half of the reaction mixture was loaded onto an HPLC, and the effluent was analyzed by mass spectrometry. The production of erythronolide B as evidenced by a new peak eluting earlier in the gradient and showing [M+H]^+=401. Conversion was estimated at 50% based on relative total ion counts.
SMILES,conversion of narbomycin to picromycin (picK protein),conversion of 6-deoxyerythronolide B to erythronolide B [1]
CC[C@H]1OC(=O)[C@H](C)C(=O)[C@H](C)[C@@H](O[C@@H]2O[C@H](C)C[C@H](N(C)C)[C@H]2O)[C@@H](C)C[C@@H](C)C(=O)/C=C/[C@H]1C [narbomycin],greater than 90%,–
CC[C@H]1OC(=O)[C@H](C)[C@@H](O)[C@H](C)[C@@H](O)[C@@H](C)C[C@@H](C)C(=O)[C@H](C)[C@@H](O)[C@H]1C [6-deoxyerythronolide B],–,~50%
